This assay concerns the target T1, ΔF508-CFTR (Homo sapiens, UniProt P13569, DEL508-508).
T1 construct: expressed in transfected cells
In words: Membrane potential optical assay (FRET/VIPR), identification of correction compounds. It is filed as cell-based. An outline of the steps: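 Corrector screen: FRET voltage-sensor dyes (CC2-DMPE donor, DiSBAC2(3)) report Cl^− efflux-driven depolarization after 10 μM forskolin and 20 μM genistein in Cl^−-free medium. Beforehand, ΔF508-CFTR NIH3T3 fibroblasts received compound for 16 hrs at 37° C; temperature-corrected cells (27° C) served as positive control.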

T1 sequence (P13569 with tags, fused parts or gaps DEL508-508): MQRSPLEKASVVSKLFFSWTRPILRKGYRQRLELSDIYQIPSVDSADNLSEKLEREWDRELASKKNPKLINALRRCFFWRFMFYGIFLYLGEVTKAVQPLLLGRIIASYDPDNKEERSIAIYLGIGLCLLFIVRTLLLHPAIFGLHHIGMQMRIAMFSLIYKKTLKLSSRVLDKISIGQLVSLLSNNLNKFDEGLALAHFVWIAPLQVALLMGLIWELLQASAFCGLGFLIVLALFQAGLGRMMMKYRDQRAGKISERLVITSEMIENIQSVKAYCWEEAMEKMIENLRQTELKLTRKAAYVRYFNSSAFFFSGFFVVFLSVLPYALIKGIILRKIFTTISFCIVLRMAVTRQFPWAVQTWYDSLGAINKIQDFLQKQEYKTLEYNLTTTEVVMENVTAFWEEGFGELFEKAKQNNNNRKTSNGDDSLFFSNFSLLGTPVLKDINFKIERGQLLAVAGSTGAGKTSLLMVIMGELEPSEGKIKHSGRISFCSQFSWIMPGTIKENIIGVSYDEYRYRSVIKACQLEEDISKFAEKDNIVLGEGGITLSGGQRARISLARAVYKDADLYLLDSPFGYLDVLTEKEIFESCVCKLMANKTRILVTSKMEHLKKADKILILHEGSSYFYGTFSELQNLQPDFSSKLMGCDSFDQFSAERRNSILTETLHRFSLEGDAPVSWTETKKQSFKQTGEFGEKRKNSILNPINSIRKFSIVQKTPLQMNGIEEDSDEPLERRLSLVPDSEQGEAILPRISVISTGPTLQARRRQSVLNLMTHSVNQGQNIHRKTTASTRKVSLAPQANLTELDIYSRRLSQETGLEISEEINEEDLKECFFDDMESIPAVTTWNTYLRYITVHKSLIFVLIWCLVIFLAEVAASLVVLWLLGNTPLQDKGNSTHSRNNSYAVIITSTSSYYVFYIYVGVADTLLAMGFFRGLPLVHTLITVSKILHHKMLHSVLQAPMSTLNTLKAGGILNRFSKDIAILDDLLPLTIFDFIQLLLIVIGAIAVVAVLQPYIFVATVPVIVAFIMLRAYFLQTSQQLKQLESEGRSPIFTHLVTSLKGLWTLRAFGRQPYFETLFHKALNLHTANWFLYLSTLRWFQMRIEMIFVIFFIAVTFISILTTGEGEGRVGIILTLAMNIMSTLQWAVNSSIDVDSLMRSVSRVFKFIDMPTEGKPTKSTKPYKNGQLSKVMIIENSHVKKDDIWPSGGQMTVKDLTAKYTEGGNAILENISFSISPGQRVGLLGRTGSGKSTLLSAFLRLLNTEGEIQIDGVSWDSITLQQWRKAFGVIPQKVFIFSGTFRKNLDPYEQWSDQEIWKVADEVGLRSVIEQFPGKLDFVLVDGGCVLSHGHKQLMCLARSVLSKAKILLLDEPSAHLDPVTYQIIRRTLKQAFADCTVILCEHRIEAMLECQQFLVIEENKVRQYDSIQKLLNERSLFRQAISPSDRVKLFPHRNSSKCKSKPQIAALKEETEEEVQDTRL

Consider `COc1cc2nc(C(C)N3CCN(S(=O)(=O)c4ccc(C)cc4)CC3)n(C)c(=O)c2cc1OC` (centres unmarked) [compound 286], for which the concentration for a half-maximal effect (EC50) lay within 25 to 60 µM. For the same compound, the Emax (relative efficacy) was 25 to 100%.

As to `CC(c1nc2ccccc2c(=O)n1C)N1CCN(S(=O)(=O)c2cccc3cnccc23)CC1` (centres unmarked) [compound 251], the half-maximal effective concentration (EC50) was 25 to 60 µM. The Emax (relative efficacy) is less than 25%.

For `Cc1ccc(NC(=O)N2CCN(C(C)c3nc4ccccc4c(=O)n3C)CC2)cc1` (centres unmarked) [compound 56], the EC50 lay within 10 to 25 µM. Also, the Emax (relative efficacy) is less than 25%.

For `CC(c1nc2cc(Cl)ccc2c(=O)n1C)N1CCN(S(=O)(=O)c2ccc(OC(F)(F)F)cc2)CC1` (centres unmarked) [compound 99], the EC50 is less than 10 µM. In addition, under “relative efficacy”, the Emax is 25 to 100%.

As for `CC(NC1CCN(S(=O)(=O)c2ccc(Cl)cc2)CC1)c1nc2ccccc2c(=O)n1C` (centres unmarked) [compound 209], the EC50 fell in the range of 10 to 25 µM. Further, under “relative efficacy”, the Emax lay within 25 to 100%.

Take `COc1cc2nc(C(C)N3CCN(S(=O)(=O)c4ccc(Cl)cc4)CC3)n(C)c(=O)c2cc1OC` (centres unmarked) [compound 283]: the EC50 is 25 to 60 µM. The Emax (relative efficacy) is 25 to 100%.

Consider `CC(c1nc2ccccc2c(=O)n1CCO)N1CCN(S(=O)(=O)c2ccc(Br)cc2)CC1` (centres unmarked) [compound 153], for which the EC50 lay in the range of 10 to 25 µM. Further, the Emax (relative efficacy) lay in the range of 25 to 100%.

Turning to `Cc1ccccc1C(=O)N1CCN(C(C)c2nc3ccc(Cl)cc3c(=O)n2C)CC1` (centres unmarked) [compound 15], the EC50 lay in the range of 10 to 25 µM. For the same compound, the Emax (relative efficacy) was 25 to 100%.

As for `COc1ccc(S(=O)(=O)N2CCN(C(C)c3nc(Oc4ccncc4)c4ccccc4n3)CC2)cc1` (centres unmarked) [compound 297], the EC50 was less than 10 µM. Moreover, the maximal effect (Emax) (relative efficacy) lay in the range of 25 to 100%.

For the compound `CC(c1nc2ccccc2c(=O)[nH]1)N1CCN(S(=O)(=O)c2ccc(Br)cc2)CC1` (centres unmarked) [compound 127], the EC50 was 10 to 25 µM. Also, the Emax (relative efficacy) fell in the range of 25 to 100%.

`Cc1cccc(C(=O)N2CCN(C(C)c3nc4cc(Cl)ccc4c(=O)n3C)CC2)c1` (centres unmarked) [compound 119]: the EC50 is 10 to 25 µM. Where the note is “relative efficacy”, the Emax lay in the range of 25 to 100%.

Regarding `CC(c1nc(N(C)C)c2ccccc2n1)N1CCN(S(=O)(=O)c2ccc(Cl)cc2)CC1` (centres unmarked) [compound 233], the EC50 was in the range of 25 to 60 µM. The maximum response (Emax) (relative efficacy) lay within 25 to 100%.

On to `CC(c1nc2ccccc2c(=O)n1C)N1CCN(S(=O)(=O)c2cccc3nsnc23)CC1` (centres unmarked) [compound 282], for which the EC50 is 25 to 60 µM. The maximal response (Emax) (relative efficacy) is less than 25%.

As to `COc1ccc(S(=O)(=O)N2CCN(C(C)c3nc(N4CCCc5ccccc54)c4ccccc4n3)CC2)cc1` (centres unmarked) [compound 388], the EC50 is less than 10 µM. Also, the Emax (relative efficacy) was more than 100%.

For the compound `CCn1c(C(C)N2CCN(S(=O)(=O)c3ccc(C)cc3)CC2)nc2ccc(Cl)cc2c1=O` (centres unmarked) [compound 36], the EC50 lay in the range of 25 to 60 µM. Besides, the Emax (relative efficacy) lay in the range of 25 to 100%.

For the compound `CCCOc1nc(CC)nc2ccccc12` [compound 158], the EC50 lay in the range of 25 to 60 µM. In addition, the Emax (relative efficacy) is less than 25%.

`Cc1c(S(=O)(=O)N2CCN(C(C)c3nc4ccccc4c(=O)n3C)CC2)sc2ccc(Cl)cc12` (centres unmarked) [compound 270]: the EC50 was 25 to 60 µM. For the same compound, the Emax (relative efficacy) is less than 25%.

Consider `COc1ccc(S(=O)(=O)N2CCN(C(C)c3nc(OC4CCC(O)CC4)c4ccccc4n3)CC2)cc1` (centres unmarked) [compound 343], for which the EC50 was in the range of 25 to 60 µM. Moreover, the Emax (relative efficacy) was 25 to 100%.

In the case of `CCSc1ccc(S(=O)(=O)N2CCN(C(C)c3nc4ccccc4c(=O)n3C)CC2)cc1` (centres unmarked) [compound 351], the EC50 is 25 to 60 µM. Also, under “relative efficacy”, the Emax was less than 25%.

In the case of `CCn1c(C(C)N2CCN(S(=O)(=O)c3ccc(Cl)c([N+](=O)[O-])c3)CC2)nc2ccc(Cl)cc2c1=O` (centres unmarked) [compound 34], the EC50 fell in the range of 25 to 60 µM. In addition, under “relative efficacy”, the Emax is less than 25%.

For the compound `CCOC(=O)c1cnc(C(C)N2CCN(S(=O)(=O)c3ccc(OC)cc3)CC2)nc1OC1CCCC1` (centres unmarked) [compound 362], the EC50 is less than 10 µM. Moreover, the Emax (relative efficacy) was more than 100%.

For the compound `COc1ccc(S(=O)(=O)N2CCN(C(C)c3nc(OC4CCCC4)c4ccccc4n3)CC2)cc1` (centres unmarked) [compound 397], the EC50 fell in the range of 10 to 25 µM. The “% Efficacy” value (relative efficacy) is “++ (“++” means between 25% to 100%)”.

A word on the EC50: it is the midpoint of the concentration-response curve. The Emax is the greatest response seen or fitted, relative to the assay's reference.

The record behind these values is patent US8642609B2, “Modulators of ATP-binding cassette transporters” (Vertex Pharmaceuticals Incorporated, priority 2003, dated 2014).
